What follows are compounds tested on TT (RET C634W) cells (assay: Cell proliferation assay (MTS), TT cells). Settings: Homo sapiens, TT, 72 h, 72 h incubation, MTS readout.
Type: cell-based
Description: MTS testing kit was purchased from Promega. The RPMI-1640, F12, F12K, Fetal bovine serum and Penicillin-Streptomycin were purchased from BI. Glutamine and Dimethyl sulfoxide (DMSO) were purchased from Sigma. TT cells were cultured in F12K supplemented with 10% FBS and LC-2/ad cells were cultured in HamF12: RPMI1640 (1:1) supplemented with 10% FBS and 2 mM Glutamine.
To investigate whether a compound is able to inhibit the activity of RET fusion and/or mutation in cells, a mechanism-based assay using TT (RET C634W) and LC-2/ad (CCDCl6-RET) cell lines was developed. In this assay, the inhibition of RET fusion and/or mutation was reflected by the inhibition of cell proliferation of TT and LC-2/ad cells. Cells were plated into 96-well plates at the optimized cell density (TT: 5000 cells/well; LC-2/ad: 5000 cells/well). Plates were incubated at 37° C., with 5% CO2 for 24 h. Compounds were serially diluted and added to the plates with the final concentrations as 10000, 3333.3, 1111.1, […], 123.5, 41.2, 13.7, 4.6 and 1.5 nM. Plates were incubated at 37° C., with 5% CO2 for 72 h. An aliquot of 20 μL MTS/100 μL medium mixture solution were added to each well and the plates were incubated for exactly 2 h. The reaction was stopped by adding 25 μL 10% SDS to each well. The absorbance was measured by a microplate reader at 490 nm and 650 nm (reference wavelength). IC50 was calculated using GraphPad Prism 5.0.

| Compound | IC50 [nM] |
| --- | --- |
| N#Cc1cnc2cc(OCC3(O)CC3)cc(-c3ccc(N4CCC(Oc5ccc(C6CC6)nc5)CC4)nc3)n12 [Example 76, 5-(6-(4-((6-cyclopropylpyridin-3-yl)oxy)piperidin-1-yl)pyridin-3-yl)-7-((1-hydroxy-cyclopropyl)methoxy)imidazo[1,2-a]pyr-idine-3-carbonitrile] | 5 |
| Cc1ccc(OC2CCN(c3ccc(-c4cc(OCC(C)(C)O)cc5ncc(C#N)n45)cn3)CC2)cn1 [Example 71, 7-(2-hydroxy-2-methylpropoxy)-5-(6-(4-((6-methylpyridin-3-yl)oxy)piperidin-1-yl)pyridin-3-yl)imidazo[1,2-a]pyridine-3-carbonitrile] | 22 |
| CCOc1ccc(OC2CCN(c3ccc(-c4cc(OCC5(O)CC5)cc5ncc(C#N)n45)cn3)CC2)cn1 [Example 79, 5-(6-(4-((6-ethoxypyridin-3-yl)oxy)piperi-din-1-yl)pyridin-3-yl)-7-((1-hydroxycyclo-propyl)methoxy)imidazo[1,2-a]pyridine-3-carbonitrile] | 1 |
| Cn1cc(-c2cc3ncc(C#N)n3c(-c3ccc(N4CCN(Cc5ccccc5)CC4)nc3)n2)cn1 [Example 25, 5-(6-(4-benzylpiperazin-1-yl)pyridin-3-yl)-7-(1-methyl-1H-pyrazol-4-yl) imidazo[1,2-c]pyrimidine-3-carbonitrile] | 79 |
| Cn1cc(-c2cc(-c3ccc(N4CCN(Cc5c(F)cccc5F)CC4)nc3)n3c(C#N)cnc3c2)cn1 [Example 35, 5-(6-(4-(2,6-difluorobenzyl)piperazin-1-yl)pyridin-3-yl)-7-(1-methyl-1H-pyrazol-4-yl)imidazo[1,2-a]pyridine-3-carbonitrile] | 1 |
| COc1ccccc1CN1CCN(c2ccc(-c3cc(-c4cnn(C)c4)cc4ncc(C#N)n34)cn2)CC1 [Example 29, 5-(6-(4-(2-methoxybenzyl)piperazin-1-yl)pyridin-3-yl)-7-(1-methyl-1H-pyrazol-4-yl)imidazo[1,2-a]pyridine-3-carbonitrile] | 84 |
| CN(C)[C@@H](C(=O)N1CCN(c2ccc(-c3cc(-c4cnn(C)c4)cc4ncc(C#N)n34)cn2)CC1)c1cccc(Cl)c1 [Example 39, (R)-5-(6-(4-(2-(3-chlorophenyl)-2-(dimethylamino)acetyl)piperazin-1-yl)pyridin-3-yl)-7-(1-methyl-1H-pyrazol-4-yl)imidazo[1,2-a]pyridine-3-car-bonitrile] | 39 |
| COc1ccc(OC2CN(c3ccc(-c4cc(OCC(C)(C)O)cc5ncc(C#N)n45)cn3)C2)cn1 [Example 93, 7-(2-hydroxy-2-methylpropoxy)-5-(6-(3-((6-methoxypyridin-3-yl)oxy)azetidin-1-yl)pyridin-3-yl)imidazo[1,2-a]pyridine-3-carbonitrile] | 39 |
| C#Cc1ccc(OC2CCN(c3ccc(-c4cc(OCC(C)(C)O)cc5ncc(C#N)n45)cn3)CC2)cn1 [Example 80, 5-(6-(4-((6-ethynylpyridin-3-yl)oxy)piper-idin-1-yl)pyridin-3-yl)-7-(2-hydroxy-2-methylpropoxy)imidazo[1,2-a]pyridine-3-carbonitrile] | 7 |
| CCOc1ccc(OC2CCN(c3ccc(-c4cc(OCC(C)(C)O)cc5ncc(C#N)n45)cn3)CC2)cn1 [Example 88, 5-(6-(4-((6-ethoxypyridin-3-yl)oxy)piperi-din-1-yl)pyridin-3-yl)-7-(2-hydroxy-2-meth-ylpropoxy)imidazo[1,2-a]pyridine-3-car-bonitrile] | 2 |
| Cc1ccc(OC2CCN(c3ccc(-c4cc(OCC5(O)CC5)cc5ncc(C#N)n45)cn3)CC2)cn1 [Example 74, 7-((1-hydroxycyclopropyl)methoxy)-5-(6-(4-((6-methylpyridin-3-yl)oxy)piperidin-1-yl)pyridin-3-yl)imidazo[1,2-a]pyridine-3-carbonitrile] | 23 |
| CN(C)C(C(=O)N1CCN(c2ccc(-c3cc(-c4cnn(C)c4)cc4ncc(C#N)n34)cn2)CC1)c1ccc(F)c(Cl)c1 (centres unmarked) [Example 41, 5-(6-(4-(2-(3-chloro-4-fluorophenyl)-2-(dimethylamino)acetyl)piperazin-1-yl)pyridin-3-yl)-7-(1-methyl-1H-pyrazol-4-yl)imidazo[1,2-a]pyridine-3-carbonitrile] | 12 |
| COc1ccc(O[C@H]2CCN(c3ccc(-c4cc(OCC(C)(C)O)cc5ncc(C#N)n45)cn3)C2)cn1 [Example 89, (S)-7-(2-hydroxy-2-methylpropoxy)-5-(6-(3-((6-methoxypyridin-3-yl)oxy)pyrrolidin-1-yl)pyridin-3-yl)imidazo[1,2-a]pyridine-3-carbonitrile] | 45 |
| N#Cc1cnc2cc(OCC3(O)CC3)cc(-c3ccc(N4CCC(Oc5ccc(C(F)F)nc5)CC4)nc3)n12 [Example 78, 5-(6-(4-((6-(difluoromethyl)pyridin-3-yl)oxy)piperidin-1-yl)pyridin-3-yl)-7-((1-hy-droxycyclopropyl)methoxy)imidazo[1,2-a]pyridine-3-carbonitrile] | 13 |
| Cc1cccnc1CN1CCN(c2ccc(-c3cc(-c4cnn(C)c4)cc4ncc(C#N)n34)cn2)CC1 [Example 9, 7-(1-methyl-1H-pyrazol-4-yl)-5-(6-(4-((3-methylpyridin-2-yl)methyl)pi-perazin-1-yl)pyridin-3-yl)imidazo[1,2-a]pyridine-3-carbonitrile] | 79 |
| Cn1cc(-c2cc(-c3ccc(N4CCN(Cc5ccc6ncn(C)c6c5)CC4)nc3)n3c(C#N)cnc3c2)cn1 [Example 36, 5-(6-(4-((1-methyl-1H-benzo[d]imid-azol-6-yl)methyl)piperazin-1-yl)pyri-din-3-yl)-7-(1-methyl-1H-pyrazol-4-yl)imidazo[1,2-a]pyridine-3-carboni-trile] | 62 |
| CC(C)(O)COc1cc(-c2ccc(N3CCC(Oc4ccc(C5CC5)nc4)CC3)nc2)n2c(C#N)cnc2c1 [Example 72, 5-(6-(4-((6-cyclopropylpyridin-3-yl)oxy)piperidin-1-yl)pyridin-3-yl)-7-(2-hydroxy-2-methylpropoxy)imidazo[1,2-a]pyridine-3-carbonitrile] | 17 |
| COc1ncc(OC2CCN(c3ccc(-c4cc(OCC5(O)CC5)cc5ncc(C#N)n45)cn3)CC2)cc1F [Example 87, 5-(6-(4-((5-fluoro-6-methoxypyridin-3-yl)oxy)piperidin-1-yl)pyridin-3-yl)-7-((1-hydroxycyclopropyl)methoxy)imidazo[1,2-a]pyridine-3-carbonitrile] | 38 |
| CN(C)c1ccc(CN2CCN(c3ccc(-c4cc(-c5cnn(C)c5)cc5ncc(C#N)n45)cn3)CC2)cn1 [Example 28, 5-(6-(4-((6-(dimethylamino)pyridin-3-yl)methyl)piperazin-1-yl)pyridin-3-yl)-7-(1-methyl-1H-pyrazol-4-yl)im-idazo[1,2-a]pyridine-3-carbonitrile] | 79 |
| COc1ccc(O[C@@H]2CCN(c3ccc(-c4cc(OCC(C)(C)O)cc5ncc(C#N)n45)cn3)C2)cn1 [Example 95, (R)-7-(2-hydroxy-2-methylpropoxy)-5-(6-(3-((6-methoxypyridin-3-yl)oxy)pyrrolidin-1-yl)pyridin-3-yl)imidazo[1,2-a]pyridine-3-carbonitrile] | 7 |
| COc1ccc(OC2CN(c3ccc(-c4cc(OCC5(O)CC5)cc5ncc(C#N)n45)cn3)C2)cn1 [Example 92, 7-((1-hydroxycyclopropyl)methoxy)-5-(6-(3-((6-methoxypyridin-3-yl)oxy)azetidin-1-yl)pyridin-3-yl)imidazo[1,2-a]pyridine-3-carbonitrile] | 87 |
| C#Cc1ccc(OC2CCN(c3ccc(-c4cc(OCC5(O)CC5)cc5ncc(C#N)n45)cn3)CC2)cn1 [Example 81, 5-(6-(4-((6-ethynylpyridin-3-yl)oxy)piper-idin-1-yl)pyridin-3-yl)-7-((1-hydroxycyclo-propyl)methoxy)imidazo-[1,2-a]pyridine-3-carbonitrile] | 5 |
| Cn1cc(-c2cc(-c3ccc(N4CCN(Cc5cc(F)ccc5F)CC4)nc3)n3c(C#N)cnc3c2)cn1 [Example 8, 5-(6-(4-(2,5-difluorobenzyl)piperazin-1-yl)pyridin-3-yl)-7-(1-methyl-1H-pyrazol-4-yl)imidazo[1,2-a]pyridine-3-carbonitrile] | 39 |
| Cc1ccc(CC(=O)N2CCN(c3ccc(-c4cc(-c5cnn(C)c5)cc5ncc(C#N)n45)cn3)CC2)nc1 [Example 47, 7-(1-methyl-1H-pyrazol-4-yl)-5-(6-(4-(2-(5-methylpyridin-2-yl)acetyl)pi-perazin-1-yl)pyridin-3-yl)imidazo[1,2-a]pyridine-3-carbonitrile] | 88 |
| CCc1ccc(OC2CCN(c3ccc(-c4cc(OCC5(O)CC5)cc5ncc(C#N)n45)cn3)CC2)cn1 [Example 75, 5-(6-(4-((6-ethylpyridin-3-yl)oxy)piperidin-1-yl)pyridin-3-yl)-7-((1-hydroxycyclo-propyl)methoxy)imidazo[1,2-a]pyridine-3-carbonitrile] | 1 |
| CC(C)(O)COc1cc(-c2ccc(N3CCC(Oc4ccc(C(F)F)nc4)CC3)nc2)n2c(C#N)cnc2c1 [Example 77, 5-(6-(4-((6-(difluoromethyl)pyridin-3-yl)oxy)piperidin-1-yl)pyridin-3-yl)-7-(2-hy-droxy-2-methylpropoxy)imidazo[1,2-a]pyr-idine-3-carbonitrile] | 48 |
